# Experimental data: ChEMBL document CHEMBL5512696, “Discovery of a Novel ASM Direct Inhibitor with a 1,5-Diphenyl-pyrazole Scaffold and Its Antidepressant Mechanism of Action” (J Med Chem, 2024)
# The source made the active and inactive calls. The calls are words filed in the database; no cut-off is given here.
# Experiments:
# [1] = Neurotoxicity against human SH-SY5Y cells assessed as reduction in cell viability at 5 to 20 uM by CCK-8 assay; format: toxicity, cell-based; conditions: dose 5-20 µM
# [2] = Neurotoxicity against human SH-SY5Y cells assessed as reduction in cell viability at 100 uM by CCK-8 assay; format: toxicity, cell-based
# [3] = Neurotoxicity against human SH-SY5Y cells assessed as cell survival rate at 5 to 20 uM by CCK-8 assay relative to control; format: toxicity, cell-based; conditions: dose 5-20 µM, read-out: Survival
# [4] = system: SH-SY5Y; assay: Neuroprotective activity against corticosterone induced human SH-SY5Y cells assessed as protection against corticosterone induced cell damage measured after 24 hrs by CCK-8 assay; format: functional, cell-based; conditions: dose 5-20 µM
# [5] = Metabolic stability in human liver microsomes assessed as half life at 1 uM incubated for 60 mins by LC-MS/MS analysis; format: ADME, Microsome
# [6] = Metabolic stability in human liver microsomes assessed as intrinsic clearance at 1 uM incubated for 60 mins by LC-MS/MS analysis; format: ADME, Microsome; conditions: read-out: CLH
# [7] = Half life in male ICR mouse at 1 mg/kg, iv measured upto 480 mins by LC-MS/MS analysis; format: ADME, organism-based; conditions: in vivo, 8 h
# [8] = Tmax in male ICR mouse at 1 mg/kg, iv measured upto 480 mins by LC-MS/MS analysis; format: ADME, organism-based; conditions: in vivo
# [9] = Cmax in male ICR mouse at 1 mg/kg, iv measured upto 480 mins by LC-MS/MS analysis; format: ADME, organism-based; conditions: in vivo
# [10] = AUC (0 to t) in male ICR mouse at 1 mg/kg, iv measured upto 480 mins by LC-MS/MS analysis; format: ADME, organism-based; conditions: in vivo
# [11] = AUC (0 to infinity) in male ICR mouse at 1 mg/kg, iv measured upto 480 mins by LC-MS/MS analysis; format: ADME, organism-based; conditions: in vivo, 8 h
# [12] = Observed MRT (0 to infinity) in male ICR mouse at 1 mg/kg, iv measured upto 480 mins by LC-MS/MS analysis; format: ADME, organism-based; conditions: in vivo
# [13] = Observed apparent volume of distribution in male ICR mouse at 1 mg/kg, iv measured upto 480 mins by LC-MS/MS analysis; format: ADME, organism-based; conditions: in vivo, 8 h
# [14] = Observed clearance in male ICR mouse at 1 mg/kg, iv measured upto 480 mins by LC-MS/MS analysis; format: ADME, organism-based; conditions: in vivo, 8 h
# [15] = Bioavailability in male ICR mouse at 1 mg/kg, iv measured upto 480 mins by LC-MS/MS analysis; format: ADME, organism-based; conditions: in vivo
# [16] = AUC (0 to infinity) in male ICR mouse at 10 mg/kg, ip measured upto 480 mins by LC-MS/MS analysis; format: ADME, organism-based; conditions: in vivo
# [17] = AUC (0 to t) in male ICR mouse at 10 mg/kg, ip measured upto 480 mins by LC-MS/MS analysis; format: ADME, organism-based; conditions: in vivo
# [18] = Cmax in male ICR mouse at 10 mg/kg, ip measured upto 480 mins by LC-MS/MS analysis; format: ADME, organism-based; conditions: in vivo
# [19] = Half life in male ICR mouse at 10 mg/kg, ip measured upto 480 mins by LC-MS/MS analysis; format: ADME, organism-based; conditions: in vivo
# [20] = Observed MRT (0 to infinity) in male ICR mouse at 10 mg/kg, ip measured upto 480 mins by LC-MS/MS analysis; format: ADME, organism-based; conditions: in vivo
# [21] = Drug concentration in male ICR mouse plasma at 1 mg/kg, iv measured after 30 mins by LC-MS/MS analysis; format: ADME, organism-based
# [22] = Drug concentration in male ICR mouse plasma at 1 mg/kg, iv measured after 60 mins by LC-MS/MS analysis; format: ADME, organism-based
# [23] = Drug concentration in male ICR mouse brain at 1 mg/kg, iv measured after 30 mins by LC-MS/MS analysis; format: ADME, organism-based; conditions: read-out: Ct
# [24] = Drug concentration in male ICR mouse brain at 1 mg/kg, iv measured after 60 mins by LC-MS/MS analysis; format: ADME, organism-based; conditions: read-out: Ct
# [25] = Ratio of drug concentration in male ICR mouse brain to plasma at 1 mg/kg, iv measured after 30 mins by LC-MS/MS analysis; format: ADME, organism-based; conditions: read-out: BPR
# [26] = Ratio of drug concentration in male ICR mouse brain to plasma at 1 mg/kg, iv measured after 60 mins by LC-MS/MS analysis; format: ADME, organism-based; conditions: read-out: BPR
# [27] = system: Mus musculus; assay: Improvement in depression-like behavior in ICR mouse model of chronic unpredictable mild stress assessed as reduction in immobility time at 6 to 24 mg/kg, ip administered once a day for 10 days post 8 week of chronic unpredictable mild stress by tail suspension test; format: functional, organism-based; conditions: dose 6-24 mg/kg, time 10.0 day
# [28] = system: Mus musculus; assay: Improvement in depression-like behavior in ICR mouse model of chronic unpredictable mild stress assessed as reduction in immobility time at 6 to 24 mg/kg, ip administered once a day for 10 days post 8 week of chronic unpredictable mild stress by forced swim test; format: functional, organism-based; conditions: dose 6-24 mg/kg, time 10.0 day
# [29] = system: Mus musculus; assay: Improvement in depression-like behavior in ip dosed ICR mouse model of chronic unpredictable mild stress assessed as improvement in sugar consumption administered once a day for 10 days post 8 week of chronic unpredictable mild stress by sugar preference test; format: functional, organism-based; conditions: dose 6-24 mg/kg, time 10.0 day
# [30] = system: Mus musculus; assay: Improvement in depression-like behavior in ICR mouse model of chronic unpredictable mild stress assessed as increase in total distance traveled in center at 6 to 24 mg/kg, ip administered once a day for 10 days post 8 week of chronic unpredictable mild stress by open field test; format: functional, organism-based; conditions: dose 6-24 mg/kg, time 10.0 day
# [31] = system: Mus musculus; assay: (§1) Antidepressant activity in ICR mouse model of chronic unpredictable mild stress assessed as downregulation of neuronal apoptosis by measuring improvement in Bcl-2/Bax ratio in hippocampus at 6 to 24 mg/kg, ip administered once a day for 1 week post 8 week of chronic unpredictable mild stress and measured after 1 week by Western blot analysis; format: functional, organism-based; conditions: dose 6-24 mg/kg, time 2.0 weeks
# [32] = system: Mus musculus; assay: (§2) Antidepressant activity in ip dosed ICR mouse model of chronic unpredictable mild stress assessed as downregulation of neuronal apoptosis by measuring reduction in caspase-3 protein level in hippocampus administered once a day for 1 week post 8 week of chronic unpredictable mild stress and measured after 1 week by Western blot analysis; format: functional, organism-based; conditions: dose 6-24 mg/kg, time 2.0 weeks
# [33] = system: Mus musculus; assay: as §2, with “caspase-9” for “caspase-3”; format: functional, organism-based; conditions: dose 6-24 mg/kg, time 2.0 weeks
# [34] = system: Mus musculus; assay: as §1, with “increase” for “improvement”, “BDNF protein level” for “Bcl-2/Bax ratio”; format: functional, organism-based; conditions: dose 6-24 mg/kg, time 2.0 weeks
# [35] = system: Mus musculus; assay: (§3) Antidepressant activity in ICR mouse model of chronic unpredictable mild stress assessed as reduction in ceramide level in cerebral cortex at 6 to 12 mg/kg, ip administered once a day for 1 week post 8 week of chronic unpredictable mild stress and measured after 1 week by ELISA; format: functional, organism-based; conditions: dose 6-12 mg/kg, time 2.0 weeks
# [36] = system: Mus musculus; assay: Antidepressant activity in ICR mouse model of chronic unpredictable mild stress assessed as reduction in ceramide level in hippocampus at 6 to 12 mg/kg, ip administered once a day for 1 week post 8 week of chronic unpredictable mild stress and measured after 1 week by ELISA; format: functional, organism-based; conditions: dose 6-12 mg/kg, time 2.0 weeks
# [37] = system: Mus musculus; assay: (§4) Antidepressant activity in ip dosed ICR mouse model of chronic unpredictable mild stress assessed as reduction in sphingosine-1-phosphate level in cerebral cortex administered once a day for 1 week post 8 week of chronic unpredictable mild stress and measured after 1 week by ELISA; format: functional, organism-based; conditions: dose 6-12 mg/kg, time 2.0 weeks
# [38] = system: Mus musculus; assay: Antidepressant activity in ip dosed ICR mouse model of chronic unpredictable mild stress assessed as reduction in sphingosine-1-phosphate level in hippocampus administered once a day for 1 week post 8 week of chronic unpredictable mild stress and measured after 1 week by ELISA; format: functional, organism-based; conditions: dose 6-12 mg/kg, time 2.0 weeks
# [39] = system: Mus musculus; assay: Antidepressant activity in ICR mouse model of chronic unpredictable mild stress assessed as reduction in sphingomyelin level in cerebral cortex at 6 to 12 mg/kg, ip administered once a day for 1 week post 8 week of chronic unpredictable mild stress and measured after 1 week by ELISA; format: functional, organism-based; conditions: dose 6-12 mg/kg, time 2.0 weeks
# [40] = system: Mus musculus; assay: Antidepressant activity in ICR mouse model of chronic unpredictable mild stress assessed as reduction in sphingomyelin level in hippocampus at 6 to 12 mg/kg, ip administered once a day for 1 week post 8 week of chronic unpredictable mild stress and measured after 1 week by ELISA; format: functional, organism-based; conditions: dose 6-12 mg/kg, time 2.0 weeks
# [41] = system: Mus musculus; assay: Antidepressant activity in ICR mouse model of chronic unpredictable mild stress assessed as reduction in sphingomyelin level in hippocampus at 12 mg/kg, ip administered once a day for 1 week post 8 week of chronic unpredictable mild stress and measured after 1 week by ELISA; format: functional, organism-based; conditions: time 2.0 weeks
# [42] = system: Mus musculus; assay: as §3, with “oxidative stress by measuring reduction in MDA” for “ceramide”; format: functional, organism-based; conditions: dose 6-12 mg/kg, time 2.0 weeks
# [43] = system: Mus musculus; assay: as §4, with “oxidative stress by measuring increase in SOD” for “sphingosine-1-phosphate”; format: functional, organism-based; conditions: dose 6-12 mg/kg, time 2.0 weeks
# [44] = system: Mus musculus; assay: as §4, with “oxidative stress by measuring increase in GSH” for “sphingosine-1-phosphate”; format: functional, organism-based; conditions: dose 6-12 mg/kg, time 2.0 weeks
# [45] = system: Mus musculus; assay: Antineuroinflammatory activity in ip dosed ICR mouse model of chronic unpredictable mild stress assessed as reduction in TNFalpha level in serum administered once a day for 1 week post 8 week of chronic unpredictable mild stress and measured after 1 week by ELISA; format: functional, organism-based; conditions: dose 6-12 mg/kg, time 2.0 weeks
# [46] = system: Mus musculus; assay: Antineuroinflammatory activity in ip dosed ICR mouse model of chronic unpredictable mild stress assessed as reduction in IL-1beta level in serum administered once a day for 1 week post 8 week of chronic unpredictable mild stress and measured after 1 week by ELISA; format: functional, organism-based; conditions: dose 6-12 mg/kg, time 2.0 weeks
# [47] = system: Mus musculus; assay: Antineuroinflammatory activity in ip dosed ICR mouse model of chronic unpredictable mild stress assessed as reduction in IL-6 level in serum administered once a day for 1 week post 8 week of chronic unpredictable mild stress and measured after 1 week by ELISA; format: functional, organism-based; conditions: dose 6-12 mg/kg, time 2.0 weeks
# [48] = system: SH-SY5Y; assay: Neuroprotective activity against corticosterone induced human SH-SY5Y cells assessed as protection against corticosterone induced morphological changes measured after 24 hrs; format: functional, cell-based; conditions: dose 5-20 µM
# [49] = organism: Mus musculus; conditions: ICR, dose 6-24 mg/kg, route ip, time 2.0 weeks
# Description: In vivo inhibition of ASM in ip dosed ICR mouse model of chronic unpredictable mild stress assessed as reduction in ASM activity in hippocampus administered once a day for 1 week post 8 week of chronic unpredictable mild stress and measured after 1 week by fluorescence based analysis
# [50] = organism: Mus musculus; conditions: ICR, dose 6-12 mg/kg, route ip, time 2.0 weeks
# Description: In vivo inhibition of ASM in ICR mouse model of chronic unpredictable mild stress assessed as increase in 5-HT uptake in hippocampus at 6 to 12 mg/kg, ip administered once a day for 1 week post 8 week of chronic unpredictable mild stress and measured after 1 week by ELISA
smiles,measurement,setting,value
O=C(NO)c1cc(-c2ccc(Br)cc2)n(-c2ccc(Cl)cc2)n1,Activity,[1],Non-Toxic
same,Activity,[2],Toxic
same,viability,[3],> 78%
same,Activity,[4],Dose-Dependent Effect
same,half-life at 1 µM,[5],111 min
same,microsomal CLint at 1 µM,[6],15.6 µL/min/mg
same,t1/2,[7],18.6 min
same,Tmax,[8],15 min
same,Cmax,[9],2590 ng/mL
same,AUC(0-t) at 8 h,[10],921 ng·h/mL
same,AUC,[11],928.07 ng·h/mL
same,MRT inf,[12],15 min
same,Vz,[13],3.29201 L/kg
same,CL,[14],45.8798 mL/min/kg
same,bioavailability,[15],39.6%
same,AUC(0-inf),[16],3650 ng·h/mL
same,AUC(0-t) at 8 h,[17],3640 ng·h/mL
same,Cmax,[18],4200 ng/mL
same,half-life,[19],50.4 min
same,MRT inf,[20],52.8 min
same,concentration at 0.5 h,[21],223 ng/mL
same,concentration at 1 h,[22],55.6 ng/mL
same,concentration at 0.5 h,[23],83.1 ng/mL
same,concentration at 1 h,[24],31.9 ng/mL
same,Kp at 0.5 h,[25],0.37
same,Kp at 1 h,[26],0.57
same,Activity,[27],Active
same,Activity,[28],Active
same,Activity,[29],Active
same,Activity,[30],Active
same,Activity,[31],Active
same,Activity,[32],Dose-Dependent Effect
same,Activity,[33],Dose-Dependent Effect
same,Activity,[34],Active
same,Activity,[35],Active
same,Activity,[36],Active
same,Activity,[37],Dose-Dependent Effect
same,Activity,[38],Dose-Dependent Effect
same,Activity,[39],Active
same,Activity,[40],Active
same,Activity,[41],Active
same,Activity,[42],Active
same,Activity,[43],Dose-Dependent Effect
same,Activity,[44],Dose-Dependent Effect
same,Activity,[45],Dose-Dependent Effect
same,Activity,[46],Dose-Dependent Effect
same,Activity,[47],Dose-Dependent Effect
same,Activity,[48],Dose-Dependent Effect
same,inhibition,[49],Dose-Dependent Effect
same,inhibition,[50],Active
